Patent US8575145B2, “Triazolopyridine compounds as PIM kinase inhibitors” (Array BioPharma Inc., priority 2008, dated 2013)
Where a name gives a salt, the structure may show the parent alone.

Assays:
Format in all cases: cell-based
CD4+ T cells [1] = assay: T Cell in vitro Functional Assay (C): IL-4 production; details: Mus musculus; CD4+ T cells cultured with IL-4/anti-IFNγ, anti-CD3 restimulation 18 hours, ELISA
Experimental: (§1) The in vitro assays to assess the effects of the compounds of Examples 16, 18 and 26 on T cells were conducted as described in assays A, B, C and D below. CD4+ T cells were isolated from red blood cell-depleted splenocytes of C57B1/6J mice (Jackson Laboratories, catalog #000664) using CD4+ T cell isolation kit (Miltenyi, catalog #130-090-860).
In assay (C), 1000000 cells/mL of purified CD4+ T cells were mixed with 1 μg/mL anti-CD28, 10 ng/mL IL-4 (R&D Systems cat #404-ML-010/CF) and 2 μg/mL anti-IFNγ (R&D Systems cat #AB-485-NA) and placed into plates coated with 1 μg/mL anti-CD3. After 5 days, cells were harvested, washed and incubated overnight at 37° 5% CO2. The following day, 50,000 cells were plated into each well of a 96 well plate. A dilution series of compounds were prepared at 200× the final concentration in DMSO, then 10×stocks were prepared by dilution in cell culture media. 10 μL of 10× stocks were added to the cells in the 96 well plate and incubated for 2 hours at 37° C., 5% CO2. Cell/compound mixtures were then transferred to well coated with 0.1 μg anti-CD3 and incubated at 37° C., 5% CO2. Culture supernatants were removed 18 hours later and tested for IL-4 levels by ELISA (R&D Systems catalog #DY404). ELISA plates were quantified relative to a standard curve using Molecular Devices Versamax Reader at […] and Softmax Pro software.
(§2) For each of assays A, B, C and D, the values for each well were converted to a percent of vehicle-treated (DMSO) control (POC). These POC values were plotted as a function of compound concentration and an IC50 calculated using a 4-parameter curve-fit analysis program.

[2] = test system: BaF3 (Mouse pro-B-cell line); assay: Cellular Proliferation Assay, cell line F; details: BaF3, 72 hours, CelltiterBlue, read-out: Cell Line F antiproliferative IC50
Experimental: (§3) The assay for determination of the antiproliferative activity of multiple Pim inhibitors in the JAK2-driven cell lines was conducted as follows. Cells were plated out to 96-well plates at an initial density of 10,000 cells/well in 95 pt. Compounds were prepared at […] in DMSO by conducting 3-fold serial dilutions to give a 10-point dosing curve having a high dose of 1000 μM. Aliquots (5 μt) of these dilutions were then transferred to the appropriate wells of the 96-well plates containing cells to yield a final DMSO concentration of 0.5%. The cells were then incubated with compound for 72 hours at 37° C., 5% CO2. CelltiterBlue reagent (Promega, Catalog #: G8080) was then added (20 μL/well) and incubated at 37° C., 5% CO2 for 1-8 hours depending on the cell line being analyzed. The plate was then quantified employing a fluorescence plate reader (Model: Gemini [Molecular Devices]; Settings: 560 nm (Ex)/590 nm (Em) 570 nm (cut-off) [CellTiter Blue Assay].
(§4) The values for each well were then converted to a percent of untreated control (POC). These POC values were then plotted as a function of compound concentration. A 4-parameter curve-fit analysis was performed for each compound dilution and an IC50 value was calculated from this curve.
(§5) Cell lines • A: PC3 (Androgen independent prostate cancer) • B: K562 (Ph+chronic myelogenous leukemia) • C: MV4-11 (Acute myelogenous leukemia) • D: BxPC3 (Pancreatic Cancer) • E: HepG2 (Hepatocellular Carcinoma) • F: BaF3 (Mouse pro-B-cell line) • G: BaF3 TEL-JAK2 (Mouse pro-B-cell transformed with TEL-JAK2 fusion) • H: BaF2 BCR-Ab1 (Mouse pro-B-cell transformed with BCR-Ab1 fusion)

[3] = test system: PC3 (Androgen independent prostate cancer); assay: Cellular Proliferation Assay, cell line A; details: PC3, 72 hours, CelltiterBlue; read-out: Cell Line A antiproliferative IC50
Experimental: as §3, §4, §5

[4] = test system: BaF2 BCR-Ab1 (Mouse pro-B-cell transformed with BCR-Ab1 fusion); assay: Cellular Proliferation Assay, cell line H; details: BaF2 BCR-Ab1, 72 hours, CelltiterBlue, read-out: Cell Line H antiproliferative IC50
Experimental: as §3, §4, §5

CD4+ T cells [5] = assay: T Cell in vitro Functional Assay (D): IL-22 production; details: Mus musculus; CD4+ T cells cultured with IL-6/TGFβ, IL-23 stimulation 18 hours, ELISA
Experimental: as §1
In assay (D), 1,000,000 cells/mL of purified CD4+ T cells were mixed with 1 μg/mL anti-CD28, 50 ng/mL IL-6 (R&D Systems cat #406-ML-025/CF), 1 ng/mL TGFβ (R&D Systems cat #303-B2-002), 2 μg/mL anti-IL-4 (R&D Systems cat #AB-404-NA), 2 μg/mL anti-IFNγ (R&D Systems cat #AB-485-NA) and placed into plates coated with 1 μg/mL anti-CD3. After 4 days, cells were harvested, washed and 100,000 cells were plated into 96 well plate. A dilution series of compounds were prepared at 200× the final concentration in DMSO, then 10× stocks were prepared by dilution in cell culture media. 10 μL of 10× stocks were added to the cells in the 96 well plate. After 2 hours, 50 ng IL-23 (R&D Systems catalog #1887-ML-010/CF) was added to each well and 18 hours later supernatants were removed and tested for IL-22 levels by ELISA (R&D Systems catalog #M2200). ELISA plates were quantified relative to a standard curve using Molecular Devices Versamax Reader at […] and Softmax Pro software.
as §2

CD4+ T cells [6] = assay: T Cell in vitro Functional Assay (B): IL-2 production; details: Mus musculus, anti-CD3/anti-CD28, 40 hours, ELISA
Experimental: as §1
In assay (A), purified CD4+ T cells were plated in 96 well plates at 90000 cells/well in 90 μL. A dilution series of the compounds of Examples 16, 18 and 26 were prepared at 100× the final concentration in DMSO and then diluted 10-fold into complete media (10× stocks). 10 μL of 10×compound stocks were added to appropriate wells of 96 well plates containing cells and incubated for 1 hour at 37° C., 5% CO2. The cell/compound mixtures were then transferred to a 96 well plate coated with anti-CD3 mAb (1 μg/mL; BD Pharmingen, catalog #553057) and soluble anti-CD28 mAb (1 μg/mL; BD Pharmingen, catalog #553294) was added. Plates were cultured at 37° C., 5% CO2 for 40 hours. 20 μL of the culture were removed for determination of proliferation using the CellTitre-Glo™ luminescent assay (Promega, Catalog #G7571) according to the manufacturer's protocol. The plate was quantified on a Packard TopCount instrument using luminescence protocol and data was analyzed using Prism software.
In assay (B), purified CD4+ cells were treated with compound and stimulated as described for assay (A). After 40 hours, supernatants were assayed for IL-2 using R&D duo set ELISA kits (catalog #DY402). ELISA plates were quantified relative to a standard curve using Molecular Devices Versamax Reader at […] and Softmax Pro software.
as §2

IC50 (CD4+ T cells [1])	IC50 [2]	IC50 [3]	IC50 (CD4+ T cells [5])	IC50 (CD4+ T cells [6])	SMILES	IC50 [4]
≤ 1 µM	< 2 µM	< 2 µM	≤ 1 µM	≤ 1 µM	CC(C)(CN)COc1cccc2ccc(-c3nnc4ccccn34)nc12 [Example 18, 3-(2-([1,2,4]Triazolo[4,3-a]pyridin-3-yl)quinolin-8-yloxy)-2,2-dimethylpropan-1-amine]	< 2 µM
≤ 1 µM	< 2 µM	< 5 µM	≤ 1 µM	≤ 1 µM	c1cc(OCC2CCCNC2)c2nc(-c3nnc4ccccn34)ccc2c1 (stereo not drawn) [Example 16, 2-([1,2,4]Triazolo[4,3-a]pyridin-3-yl)-8-(piperidin-3-ylmethoxy)quinoline]	< 5 µM

SMILES	IC50 (CD4+ T cells [1])	IC50 [2]	IC50 [3]	IC50 (CD4+ T cells [5])	IC50 (CD4+ T cells [6])	IC50 [4]
F[C@@H]1CNCCC1Oc1cccc2ccc(-c3nnc4ccccn34)nc12 (stereo in doubt) [Example 26, 2-([1,2,4]triazolo[4,3-a]pyridin-3-yl)-8-((cis)-3-fluoropiperidin-4-yloxy)quinoline dihydrochloride]	≤ 5 µM	< 2 µM	< 5 µM	≤ 5 µM	≤ 5 µM	< 2 µM
